According to the NIST ThermoML archive (doi:10.1016/j.jct.2012.03.025):

Test: mn = molality of the nth substance listed, in mol/kg
Settings: 101 kPa, Liquid; for speed of sound: Sing-around technique in a fixed-path interferometer; for mass density: Vibrating tube method

CCCCn1cc[n+](C)c1.[Br-] [1-butyl-3-methylimidazolium bromide] + O
Settings	mass density, 288.15 K [kg/m3]	mass density, 293.15 K [kg/m3]	mass density, 298.15 K [kg/m3]	mass density, 303.15 K [kg/m3]	mass density, 308.15 K [kg/m3]	speed of sound, 288.15 K [m/s]	speed of sound, 293.15 K [m/s]	speed of sound, 298.15 K [m/s]	speed of sound, 303.15 K [m/s]	speed of sound, 308.15 K [m/s]
m1 = 0.0513	1001.7	1000.78	999.601	998.177	996.522	1472.8	1488.1	1501.8	1513.7	1524
m1 = 0.1034	1004.29	1003.33	1002.13	1000.67	998.994	1478.8	1493.6	1506.8	1518.3	1528.2
m1 = 0.1531	1006.73	1005.72	1004.51	1003.02	1001.34	1484.5	1498.7	1511.5	1522.5	1532
m1 = 0.2012	1009.09	1008.05	1006.79	1005.29	1003.58	1489.6	1503.7	1516	1526.6	1535.7
m1 = 0.2499	1011.45	1010.37	1009.06	1007.54	1005.82	1494.9	1508.5	1520.4	1530.7	1539.3
m1 = 0.2995	1013.81	1012.7	1011.38	1009.81	1008.07	1500.4	1513.5	1524.9	1534.6	1543
m1 = 0.35	1016.21	1015.02	1013.64	1012.1	1010.34	1505.5	1518.3	1529.3	1538.7	1546.7
m1 = 0.4008	1018.58	1017.37	1015.96	1014.35	1012.6	1510.9	1523	1533.6	1542.6	1550.2
m1 = 0.4565	1021.19	1019.89	1018.45	1016.8	1015.05	1516.4	1528.1	1538.2	1546.8	1554
m1 = 0.5012	1023.28	1021.91	1020.5	1018.75	1017.01	1520.9	1532.2	1542	1550.2	1557.1

CCCCn1cc[n+](C)c1.[Cl-] [1-butyl-3-methylimidazolium chloride] + O
Settings	mass density, 288.15 K [kg/m3]	mass density, 293.15 K [kg/m3]	mass density, 298.15 K [kg/m3]	mass density, 303.15 K [kg/m3]	mass density, 308.15 K [kg/m3]	speed of sound, 288.15 K [m/s]	speed of sound, 293.15 K [m/s]	speed of sound, 298.15 K [m/s]	speed of sound, 303.15 K [m/s]	speed of sound, 308.15 K [m/s]
m1 = 0.0519	999.802	998.874	997.684	996.264	994.611	1474.6	1489.9	1503.6	1515.5	1525.8
m1 = 0.1011	1000.45	999.477	998.265	996.836	995.146	1482	1496.7	1509.9	1521.4	1531.3
m1 = 0.1548	1001.14	1000.16	998.918	997.452	995.754	1489.8	1504	1516.6	1527.7	1537.2
m1 = 0.2011	1001.77	1000.76	999.494	998.007	996.292	1496.5	1510.1	1522.3	1533	1542.3
m1 = 0.2583	1002.56	1001.52	1000.2	998.699	996.957	1504.3	1517.8	1529.2	1539.7	1548.4
m1 = 0.311	1003.25	1002.18	1000.86	999.317	997.577	1511.4	1524.5	1535.6	1545.6	1553.9
m1 = 0.3619	1003.98	1002.88	1001.53	999.989	998.169	1518.1	1531	1541.4	1551.3	1559.3
m1 = 0.4064	1004.59	1003.46	1002.09	1000.54	998.737	1524	1536.4	1546.8	1556.2	1563.9
m1 = 0.451	1005.23	1004.07	1002.67	1001.08	999.294	1530	1542.1	1551.6	1561	1568.4
m1 = 0.5069	1005.99	1004.8	1003.4	1001.79	999.991	1536.9	1549	1557.9	1567.1	1574

CC(=O)[O-].CCCCn1cc[n+](C)c1 [1-butyl-3-methylimidazolium acetate] + O
Settings	mass density, 288.15 K [kg/m3]	mass density, 293.15 K [kg/m3]	mass density, 298.15 K [kg/m3]	mass density, 303.15 K [kg/m3]	mass density, 308.15 K [kg/m3]	speed of sound, 288.15 K [m/s]	speed of sound, 293.15 K [m/s]	speed of sound, 298.15 K [m/s]	speed of sound, 303.15 K [m/s]	speed of sound, 308.15 K [m/s]
m1 = 0.0534	999.93	999	997.824	996.406	994.772	1476.3	1492	1505.6	1517.5	1527.3
m1 = 0.104	1000.71	999.755	998.548	997.105	995.451	1485.4	1500.6	1513.6	1525.2	1534.3
m1 = 0.1535	1001.45	1000.47	999.237	997.775	996.101	1494.2	1508.8	1521.3	1532.3	1541
m1 = 0.209	1002.31	1001.29	1000.03	998.535	996.836	1504	1517.9	1529.8	1540	1548.3
m1 = 0.2498	1002.95	1001.91	1000.62	999.11	997.391	1511	1524.4	1535.9	1545.7	1553.8
m1 = 0.2997	1003.66	1002.59	1001.27	999.737	997.998	1519.5	1532	1543	1552.5	1560.3
m1 = 0.35	1004.51	1003.4	1002.05	1000.49	998.725	1528.1	1540	1550	1559	1566.8
m1 = 0.4035	1005.33	1004.19	1002.81	1001.22	999.427	1536.9	1548	1557.6	1566	1573.3
m1 = 0.457	1006.2	1005.02	1003.61	1001.98	1000.17	1545.8	1556	1564.8	1572.9	1579.9
m1 = 0.5036	1006.93	1005.72	1004.28	1002.63	1000.79	1553.4	1562.8	1571	1578.5	1585.6

CCCCn1cc[n+](C)c1.F[B-](F)(F)F [1-butyl-3-methylimidazolium tetrafluoroborate] + O
Settings	mass density, 288.15 K [kg/m3]	mass density, 293.15 K [kg/m3]	mass density, 298.15 K [kg/m3]	mass density, 303.15 K [kg/m3]	mass density, 308.15 K [kg/m3]	speed of sound, 288.15 K [m/s]	speed of sound, 293.15 K [m/s]	speed of sound, 298.15 K [m/s]	speed of sound, 303.15 K [m/s]	speed of sound, 308.15 K [m/s]
m1 = 0.0514	1001.13	1000.19	998.93	997.535	995.822	1471.9	1487.3	1500.9	1512.8	1523
m1 = 0.1056	1003.19	1002.21	1000.85	999.439	997.645	1476.9	1492	1505	1516.2	1526
m1 = 0.1559	1005.1	1004.06	1002.6	1001.17	999.334	1481.5	1495.9	1508.5	1519.5	1528.8
m1 = 0.201	1006.76	1005.67	1004.18	1002.7	1000.82	1485.3	1499.3	1511.3	1522.1	1531.1
m1 = 0.2573	1008.83	1007.69	1006.13	1004.58	1002.65	1490	1503.4	1515	1525.2	1533.7
m1 = 0.3001	1010.36	1009.21	1007.59	1005.98	1004.05	1493.2	1506.2	1517.5	1527.3	1535.6
m1 = 0.3504	1012.17	1010.97	1009.26	1007.63	1005.66	1496.9	1509.5	1520.4	1529.8	1537.7
m1 = 0.4093	1014.26	1012.98	1011.22	1009.47	1007.54	1501.1	1513.2	1523.6	1532.6	1540.1
m1 = 0.4506	1015.7	1014.4	1012.58	1010.78	1008.78	1504	1515.6	1525.8	1534.5	1541.7
m1 = 0.508	1017.7	1016.36	1014.5	1012.56	1010.59	1507.4	1519	1528.5	1536.8	1543.7
